# In ChEMBL document CHEMBL1201862, “PubChem BioAssay data set” (2004):
# pEC50: −log10 of the molar value. Activity calls are given as the source filed them.
# What was measured:
# Perilipin-1/ABHD5 = Perilipin-1/ABHD5 (Homo sapiens, UniProt O60240+Q8WTS1); assay: Luminescence-based biochemical high throughput dose response assay for inhibitors of the interaction of the lipase co-activator protein, abhydrolase domain containing 5 (ABHD5) with perilipin-1 (PLIN1) (2K validation set). [Related pubchem assays (depositor defined):AID493027, AID493057]
# Sequence of Perilipin-1/ABHD5 (Q8WTS1 whole entry, the tested form may be a part): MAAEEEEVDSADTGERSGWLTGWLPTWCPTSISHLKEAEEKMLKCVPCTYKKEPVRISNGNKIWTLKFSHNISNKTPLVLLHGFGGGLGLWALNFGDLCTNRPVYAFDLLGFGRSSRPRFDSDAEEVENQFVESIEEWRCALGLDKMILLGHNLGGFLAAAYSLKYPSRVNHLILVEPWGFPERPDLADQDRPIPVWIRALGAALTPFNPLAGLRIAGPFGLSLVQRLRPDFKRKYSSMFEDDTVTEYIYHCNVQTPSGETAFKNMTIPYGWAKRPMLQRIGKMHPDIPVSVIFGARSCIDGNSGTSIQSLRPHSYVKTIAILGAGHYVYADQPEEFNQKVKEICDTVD
# Sequence of Perilipin-1/ABHD5 (O60240 whole entry, the tested form may be a part): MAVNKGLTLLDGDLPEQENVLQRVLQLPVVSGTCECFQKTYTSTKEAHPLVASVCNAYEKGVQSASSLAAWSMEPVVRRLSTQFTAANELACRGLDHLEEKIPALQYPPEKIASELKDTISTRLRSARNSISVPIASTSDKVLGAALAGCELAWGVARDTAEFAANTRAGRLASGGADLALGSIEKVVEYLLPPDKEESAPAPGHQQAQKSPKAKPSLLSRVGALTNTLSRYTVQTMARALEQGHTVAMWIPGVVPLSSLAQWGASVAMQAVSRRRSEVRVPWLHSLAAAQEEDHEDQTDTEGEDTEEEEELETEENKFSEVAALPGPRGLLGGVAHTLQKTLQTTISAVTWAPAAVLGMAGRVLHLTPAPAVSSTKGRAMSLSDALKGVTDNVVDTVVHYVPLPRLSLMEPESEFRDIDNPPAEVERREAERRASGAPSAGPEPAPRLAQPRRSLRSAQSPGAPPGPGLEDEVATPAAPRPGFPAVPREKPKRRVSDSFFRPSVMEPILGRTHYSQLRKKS
# [1] = target: 1-acylglycerol-3-phosphate O-acyltransferase ABHD5/Perilipin-5 (Homo sapiens, UniProt Q00G26+Q8WTS1); assay: Luminescence-based biochemical high throughput dose response assay for inhibitors of the interaction of the lipase co-activator protein, abhydrolase domain containing 5 (ABHD5) with perilipin-5 (MLDP; PLIN5) (2K validation set). [Related pubchem assays (depositor defined):AID493035, AID493241]
# Sequence of 1-acylglycerol-3-phosphate O-acyltransferase ABHD5/Perilipin-5 (Q00G26 whole entry, the tested form may be a part): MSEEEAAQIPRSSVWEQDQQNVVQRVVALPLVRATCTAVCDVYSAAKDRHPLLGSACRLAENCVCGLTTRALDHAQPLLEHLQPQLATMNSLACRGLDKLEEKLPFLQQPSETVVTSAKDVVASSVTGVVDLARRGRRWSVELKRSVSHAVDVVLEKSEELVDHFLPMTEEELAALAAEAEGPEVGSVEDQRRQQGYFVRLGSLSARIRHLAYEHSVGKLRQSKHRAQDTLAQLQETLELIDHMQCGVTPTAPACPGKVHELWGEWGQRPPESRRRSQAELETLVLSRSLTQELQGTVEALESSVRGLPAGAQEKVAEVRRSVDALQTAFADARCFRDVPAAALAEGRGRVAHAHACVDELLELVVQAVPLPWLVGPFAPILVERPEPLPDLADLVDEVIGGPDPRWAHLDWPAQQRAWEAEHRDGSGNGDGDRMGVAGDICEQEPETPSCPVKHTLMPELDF
# Sequence of 1-acylglycerol-3-phosphate O-acyltransferase ABHD5/Perilipin-5 (Q8WTS1 whole entry, the tested form may be a part): as the sequence (Q8WTS1 whole entry, the tested form may be a part) above
# Vero [2] = assay: Vero cell viability after compound exposure – synthesized analogs, set II, cytotoxicity control for West Nile virus antiviral project, SAR follow-up (AID 2402); format: functional; details: Chlorocebus sabaeus
# [3] = A Cell Based Assay for the Identification of Probe candidate Compounds with Anti- Venezuelan Equine Encephalitis virus. [Related pubchem assays: 2409, 2419, 1621, 2238, 2405, 2024, 2065, 2402, 2414, 1635, 1650, 2244 ]; format: functional
# Vero [4] = assay: antiviral protection of cells from WNV – synthesized analogs, SAR follow-up (AID 2238); format: functional, cell-based; details: Chlorocebus sabaeus
# Vero [5] = assay: antiviral activity against WNV, CPE read-out – cell-based (AID 2419); format: functional; details: Chlorocebus sabaeus
# Vero [6] = assay: host cell viability loss, Vero E6 – synthesized analogs, cytotoxicity control for West Nile virus antiviral project, SAR follow-up (AID 2244); format: functional; details: Chlorocebus sabaeus
# Vero [7] = assay: Vero 76 cell viability after compound exposure – Vero 76 cells, synthesized analogs, cytotoxicity control for West Nile virus antiviral project, SAR follow-up (AID 2414); format: functional; details: Chlorocebus sabaeus
# [8] = target: Dual specificity protein phosphatase 3 (Homo sapiens, UniProt P51452); assay: inhibition constants for human DUSP3 – biochemical, colorimetric, SAR follow-up (AID 2004)
# Large T antigen = Large T antigen (Simian virus 40, UniProt P03070); assay: A confirmatory biochemical assay using the ADP-Hunter methodology, purified TAg, and ATP to quantify activity of synthesized compounds that inhibit the ATPase activity of Tag (3). [Related pubchem assays (depositor defined):AID1903, AID1909, AID2102, AID2501, AID2615, AID2775, AID435001, AID449729]; design: species or system Betapolyomavirus macacae
# Sequence of Large T antigen (P03070 whole entry): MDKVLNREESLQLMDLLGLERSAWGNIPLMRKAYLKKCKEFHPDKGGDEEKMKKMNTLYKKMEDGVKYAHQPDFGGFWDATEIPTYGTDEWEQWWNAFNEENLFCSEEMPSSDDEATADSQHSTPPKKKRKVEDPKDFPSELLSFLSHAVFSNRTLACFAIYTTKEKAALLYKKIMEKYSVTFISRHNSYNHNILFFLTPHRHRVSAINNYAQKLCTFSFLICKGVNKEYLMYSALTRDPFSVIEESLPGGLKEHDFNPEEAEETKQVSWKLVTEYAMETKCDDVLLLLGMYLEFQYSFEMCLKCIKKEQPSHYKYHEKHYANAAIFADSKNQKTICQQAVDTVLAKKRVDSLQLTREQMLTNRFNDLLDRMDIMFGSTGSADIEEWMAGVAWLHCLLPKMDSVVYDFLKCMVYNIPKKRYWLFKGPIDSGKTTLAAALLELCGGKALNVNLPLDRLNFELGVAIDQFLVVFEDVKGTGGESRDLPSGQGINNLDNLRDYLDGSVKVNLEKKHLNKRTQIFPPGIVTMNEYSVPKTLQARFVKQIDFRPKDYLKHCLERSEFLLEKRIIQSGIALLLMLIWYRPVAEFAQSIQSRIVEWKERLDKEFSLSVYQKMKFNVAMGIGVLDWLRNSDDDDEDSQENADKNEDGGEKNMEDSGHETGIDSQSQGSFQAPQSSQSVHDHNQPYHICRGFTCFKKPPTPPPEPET
# CAAX prenyl protease 2 = CAAX prenyl protease 2 (Saccharomyces cerevisiae S288c, UniProt Q03530); format: biochemical
# Sequence of CAAX prenyl protease 2 (Q03530 whole entry): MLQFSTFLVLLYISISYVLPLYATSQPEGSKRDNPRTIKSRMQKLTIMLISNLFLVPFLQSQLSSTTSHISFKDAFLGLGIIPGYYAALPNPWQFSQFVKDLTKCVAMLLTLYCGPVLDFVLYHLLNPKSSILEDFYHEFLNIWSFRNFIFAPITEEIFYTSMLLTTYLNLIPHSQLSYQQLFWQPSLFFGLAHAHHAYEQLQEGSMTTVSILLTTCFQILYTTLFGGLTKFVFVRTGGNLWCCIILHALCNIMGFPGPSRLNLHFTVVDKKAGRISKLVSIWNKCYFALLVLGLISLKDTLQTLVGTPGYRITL
# [9] = target: Mannose-6-phosphate isomerase (Homo sapiens, UniProt P34949); assay: MPI enzyme activity inhibition – biochemical, fluorescence intensity, coupled assay, primary screen (AID 1209)
# Sequence of Mannose-6-phosphate isomerase (P34949 whole entry): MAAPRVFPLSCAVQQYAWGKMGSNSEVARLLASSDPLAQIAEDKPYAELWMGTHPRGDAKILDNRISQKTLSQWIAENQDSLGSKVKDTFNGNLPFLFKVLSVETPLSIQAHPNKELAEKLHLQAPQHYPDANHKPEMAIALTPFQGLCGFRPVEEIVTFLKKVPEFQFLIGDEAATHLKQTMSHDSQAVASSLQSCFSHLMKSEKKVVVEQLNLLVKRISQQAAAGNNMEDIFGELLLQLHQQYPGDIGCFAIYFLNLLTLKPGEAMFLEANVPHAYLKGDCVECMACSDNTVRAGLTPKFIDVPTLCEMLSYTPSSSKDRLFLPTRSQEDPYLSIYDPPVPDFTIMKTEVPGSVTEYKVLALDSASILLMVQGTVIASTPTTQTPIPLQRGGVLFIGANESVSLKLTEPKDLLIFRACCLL
# [10] = target: T1, Delta-type opioid receptor (Homo sapiens, UniProt P41143); assay: HTS Image-Based Screen for Antagonists of the DOR Receptor. [Related pubchem assays (depositor defined):AID1777, AID1785, AID1786, AID2133]; format: functional
# T1 sequence (P41143 whole entry): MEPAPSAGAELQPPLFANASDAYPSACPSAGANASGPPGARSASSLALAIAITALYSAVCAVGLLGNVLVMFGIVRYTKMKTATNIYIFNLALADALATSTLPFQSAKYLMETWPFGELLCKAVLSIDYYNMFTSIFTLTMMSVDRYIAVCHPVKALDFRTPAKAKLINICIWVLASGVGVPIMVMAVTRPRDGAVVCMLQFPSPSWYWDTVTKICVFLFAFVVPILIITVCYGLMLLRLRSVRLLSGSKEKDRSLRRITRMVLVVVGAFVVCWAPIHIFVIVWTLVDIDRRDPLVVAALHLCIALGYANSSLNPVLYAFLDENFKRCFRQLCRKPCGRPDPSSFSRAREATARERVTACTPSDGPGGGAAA
# [11] = target: T2, Kappa-type opioid receptor (Homo sapiens, UniProt P41145); format: functional
# T2 sequence (P41145 whole entry): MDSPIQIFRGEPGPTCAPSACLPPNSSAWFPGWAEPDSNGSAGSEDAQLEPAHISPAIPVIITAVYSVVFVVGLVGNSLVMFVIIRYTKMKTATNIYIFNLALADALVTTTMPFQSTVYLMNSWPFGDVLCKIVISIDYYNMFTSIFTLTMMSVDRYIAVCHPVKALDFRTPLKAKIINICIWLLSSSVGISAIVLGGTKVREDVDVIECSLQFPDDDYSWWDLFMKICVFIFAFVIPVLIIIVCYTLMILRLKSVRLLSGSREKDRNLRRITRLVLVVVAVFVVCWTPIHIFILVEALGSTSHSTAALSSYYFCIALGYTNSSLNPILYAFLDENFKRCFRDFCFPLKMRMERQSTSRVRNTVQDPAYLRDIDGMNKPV
# Mu-type opioid receptor = Mu-type opioid receptor (Homo sapiens, UniProt P35372); assay: HTS Image-Based Screen for Agonists of the MOR Receptor. [Related pubchem assays (depositor defined):AID1777, AID1785, AID1786, AID2133]; format: functional;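 further: imaging of beta-arrestin GFP recruitment into spots after receptor activation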
# Sequence of Mu-type opioid receptor (P35372 whole entry): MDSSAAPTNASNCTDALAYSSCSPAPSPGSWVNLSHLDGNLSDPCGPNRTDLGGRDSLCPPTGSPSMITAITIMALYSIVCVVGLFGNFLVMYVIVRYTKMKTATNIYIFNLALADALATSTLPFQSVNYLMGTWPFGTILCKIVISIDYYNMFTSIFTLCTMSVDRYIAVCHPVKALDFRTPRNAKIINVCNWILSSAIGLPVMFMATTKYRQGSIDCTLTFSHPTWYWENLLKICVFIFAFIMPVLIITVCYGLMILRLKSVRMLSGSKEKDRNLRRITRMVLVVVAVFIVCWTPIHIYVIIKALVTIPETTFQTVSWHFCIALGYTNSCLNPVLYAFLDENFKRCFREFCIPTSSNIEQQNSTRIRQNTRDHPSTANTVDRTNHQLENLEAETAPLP
# [12] = target: T2, Kappa-type opioid receptor; format: functional; remark: listed apart in the source
# [13] = target: T1, Delta-type opioid receptor; assay: HTS Image-Based Screen for Agonists of the DOR Receptor. [Related pubchem assays (depositor defined):AID1777, AID1786, AID2133]; format: functional
# [14] = target: T2, Kappa-type opioid receptor; format: functional; remark: listed apart in the source
# Cytochrome P450 2D6 = Cytochrome P450 2D6 (Homo sapiens, UniProt P10635); assay: qHTS Assay for Inhibitors and Substrates of Cytochrome P450 2D6. [Related pubchem assays: 410 ]; format: ADME; details: read-out: Potency
# Sequence of Cytochrome P450 2D6 (P10635 whole entry): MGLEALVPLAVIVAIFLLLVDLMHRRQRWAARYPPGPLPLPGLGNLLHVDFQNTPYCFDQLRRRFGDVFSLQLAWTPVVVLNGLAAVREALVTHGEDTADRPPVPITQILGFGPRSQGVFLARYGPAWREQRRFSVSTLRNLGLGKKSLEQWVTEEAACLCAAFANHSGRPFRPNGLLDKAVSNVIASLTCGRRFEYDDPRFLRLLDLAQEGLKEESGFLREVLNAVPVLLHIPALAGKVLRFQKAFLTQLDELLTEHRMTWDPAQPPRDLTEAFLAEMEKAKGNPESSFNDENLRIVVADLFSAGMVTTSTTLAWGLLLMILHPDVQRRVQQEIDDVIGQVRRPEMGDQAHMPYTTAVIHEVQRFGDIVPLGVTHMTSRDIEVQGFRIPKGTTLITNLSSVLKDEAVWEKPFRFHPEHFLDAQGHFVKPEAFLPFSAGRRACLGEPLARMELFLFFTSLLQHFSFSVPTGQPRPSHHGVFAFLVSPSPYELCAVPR
# Cytochrome P450 2C9 = Cytochrome P450 2C9 (Homo sapiens, UniProt P11712); details: Potency
# Sequence of Cytochrome P450 2C9 (P11712 whole entry): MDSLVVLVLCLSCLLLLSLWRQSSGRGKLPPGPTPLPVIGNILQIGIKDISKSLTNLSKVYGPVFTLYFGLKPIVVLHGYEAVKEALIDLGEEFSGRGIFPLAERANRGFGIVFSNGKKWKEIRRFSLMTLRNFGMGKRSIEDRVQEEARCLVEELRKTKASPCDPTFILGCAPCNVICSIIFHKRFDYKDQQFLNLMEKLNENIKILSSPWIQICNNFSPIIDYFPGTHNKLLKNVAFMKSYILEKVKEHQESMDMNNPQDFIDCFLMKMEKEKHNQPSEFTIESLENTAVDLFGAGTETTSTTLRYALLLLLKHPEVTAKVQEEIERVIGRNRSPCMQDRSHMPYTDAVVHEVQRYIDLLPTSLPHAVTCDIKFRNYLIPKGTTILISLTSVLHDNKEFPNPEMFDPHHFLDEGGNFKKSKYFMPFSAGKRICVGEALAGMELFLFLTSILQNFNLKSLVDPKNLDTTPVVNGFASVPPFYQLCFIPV
smiles,measurement,setting,value
CCCCC/C=C\C[C@H](O)/C=C/c1cccc(C[C@H](O)CCCCO)n1,IC50,Perilipin-1/ABHD5,5.05 µM (active)
same,IC50,[1],5.28 µM (active)
COc1ccc(-c2csc(N(CCCN(C)C)C(=O)c3ccccc3Cl)n2)cc1,CC50,Vero [2],9.54 µM (active)
same,IC50,[3],5.37 µM (active)
same,IC50,Vero [4],29.5 µM (active)
same,IC50,Vero [5],> 25 µM (active)
same,CC50,Vero [6],28.4 µM (active)
same,CC50,Vero [7],20.2 µM (active)
COc1cccc2c1NC(c1cccc3ccccc13)C1CC=CC21 (stereo not given),Ki,[8],141 µM (inactive)
Oc1ccc(Cc2ccc(O)cc2)cc1,IC50,Large T antigen,70.1 µM (active)
c1ccc(Nc2cccc(Nc3ccccc3)n2)cc1,AC50,CAAX prenyl protease 2,13.3 µM (active)
same,IC50,[9],> 50 µM (not active)
CCC(C)(C(=O)NC1CCCCC1)N(Cc1cccs1)C(=O)c1ccccn1 (stereo not given),IC50,[10],> 32 µM (inactive)
same,pEC50,[11],> 6.30
same,EC50,Mu-type opioid receptor,> 32 µM (inactive)
same,pEC50,[12],7.22
same,EC50,[13],> 32 µM (inactive)
same,IC50,[14],> 5 µM (inactive)
CC(=O)OCC1OC(c2ccc3c(c2)OCO3)C=CC1OC(C)=O (stereo not given),AC50,Cytochrome P450 2D6,7.94 µM (inconclusive)
same,AC50,Cytochrome P450 2C9,5.01 µM (inconclusive)
